Columns and labels:
Type in all cases: biochemical
[1] = biological target: T1, recombinant Factor C (rFC) (Carcinoscorpius rotundicauda, UniProt Q26422); experiment: recombinant Factor C (rFC) assay with different detergents; details: for Detergent concentration range for rFC inhibition / Detergent concentration range for rFC enhancing: 1 EU/ml EC-6, DPR-coumarin substrate, 38° C., data after 30 minutes; for enhancing concentration range (narrow or wide): rFC assay
T1 construct: made in house; host or cells: Sf9 insect cells, baculovirus
T1 sequence (Q26422 26-1019): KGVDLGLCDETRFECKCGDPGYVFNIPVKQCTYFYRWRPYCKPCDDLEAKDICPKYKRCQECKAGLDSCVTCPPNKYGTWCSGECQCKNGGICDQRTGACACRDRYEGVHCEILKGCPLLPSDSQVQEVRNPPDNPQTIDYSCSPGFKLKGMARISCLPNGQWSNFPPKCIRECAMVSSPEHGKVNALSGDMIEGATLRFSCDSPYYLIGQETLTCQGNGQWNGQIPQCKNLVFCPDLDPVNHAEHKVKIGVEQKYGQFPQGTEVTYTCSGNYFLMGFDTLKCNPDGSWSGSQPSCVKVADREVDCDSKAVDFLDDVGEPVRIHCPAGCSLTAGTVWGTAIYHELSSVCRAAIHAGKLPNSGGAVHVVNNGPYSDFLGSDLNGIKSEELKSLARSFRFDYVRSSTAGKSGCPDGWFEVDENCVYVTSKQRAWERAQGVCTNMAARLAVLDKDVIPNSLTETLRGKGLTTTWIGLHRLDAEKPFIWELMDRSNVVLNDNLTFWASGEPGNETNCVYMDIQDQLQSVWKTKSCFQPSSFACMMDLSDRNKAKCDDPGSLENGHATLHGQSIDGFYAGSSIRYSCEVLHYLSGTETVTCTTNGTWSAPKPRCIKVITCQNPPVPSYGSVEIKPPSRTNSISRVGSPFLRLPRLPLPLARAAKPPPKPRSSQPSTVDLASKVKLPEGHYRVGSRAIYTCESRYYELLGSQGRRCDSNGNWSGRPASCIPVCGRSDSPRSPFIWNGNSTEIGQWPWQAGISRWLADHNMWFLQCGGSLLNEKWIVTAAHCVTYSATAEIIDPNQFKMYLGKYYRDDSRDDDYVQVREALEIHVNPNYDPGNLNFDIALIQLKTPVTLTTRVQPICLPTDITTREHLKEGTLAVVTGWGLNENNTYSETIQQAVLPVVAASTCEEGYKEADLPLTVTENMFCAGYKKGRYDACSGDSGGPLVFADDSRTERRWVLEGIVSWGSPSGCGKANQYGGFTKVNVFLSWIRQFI
Protocol: The recombinant Factor C (rFC) assay was carried out using 20 μl of each detergent (˜10× of final concentration), 150 μl of 1 EU/ml EC-6, 10 μl of rFC supernatant 031901I, 20 μl of 300 mM Tris, pH 8.0, and 20 μl of 0.55 mM DPR-coumarin substrate. The results of the assay were read at 38° C. using a Cytofluor reader set at 390/440 nm, 5 minutes per cycle, for 1 hour. The data were graphed after 30 minutes.

[2] = tested on: purified Limulus factor C; experiment: Limulus Factor C activity at different Zwittergent concentrations; details: FIG. 6; compared with recombinant Factor C assay
Protocol: The enhancing/inhibiting effect of Zwittergent 3-14 was also tested using purified Limulus factor C (FIG. 6).
We isolated the factor C from Limulus and generated antisera against the protein. The Limulus lysate was first separated with a S-100 gel filtration followed by cation-ion exchange column. The fractions were assayed for factor C activity using the N-t-BOC-Val-Pro-Arg 7-Amido-4-methyl coumarin substrate. The Limulus factor C was purified 73 fold with 80% homogeneity as determined by enzyme assay and SDS-PAGE. The molecular weight of Limulus factor C was 117 kDa by SDS-PAGE under non-reducing conditions. […] A specific polyclonal antibody against the Limulus factor C was generated in rabbits. The anti-factor C purified IgG inhibited the activation of factor C by LPS but had no effect on the protease activity once the factor C was activated by LPS.

Recombinant Factor C = biological target: T2, Recombinant Factor C (Carcinoscorpius rotundicauda, UniProt Q26422); experiment: one-step, 1-hour endpoint endotoxin assay with or without surfactant; details: assay buffer with or without 0.0125% Zwittergent; endotoxin 055:B5 0.01-10 EU/ml; FIG. 7
T2 construct: made in house; host or cells: Sf9 insect cells, baculovirus
T2 sequence (Q26422 26-1019): T1 sequence (Q26422 26-1019)
Protocol: A one-step, 1-hour endpoint assay was performed. Endotoxin 055:B5, 0.01, 0.1, 1, and 10 EU/ml were used for the standard curve. Blank and endotoxin standards (100 μl each) were added to a 96-well plate. […] This mixture was added into each blank and endotoxin standard. The fluorescence was recorded at time zero and time 1 hour. The difference in fluorescences (delta fluorescence) were normalized with the blank. Normalized delta fluorescence was then graphed against endotoxin concentration in a log-log scale. Each data point is the result of duplicate assays.

[3] = biological target: T3, recombinant Carcinoscorpius rotundicauda Factor C (Carcinoscorpius rotundicauda, UniProt Q26422); experiment: two-step and one-step endotoxin assay (Examples 1 and 13); details: assay of Examples 1 and 13
T3 construct: made in house; host or cells: Sf9 insect cells, baculovirus (pFASTBAC1 bacmid); culture supernatant used without purification
T3 sequence (Q26422 26-1019): T1 sequence (Q26422 26-1019)
Protocol: Endotoxin was pre-incubated with culture medium containing recombinant Carcinoscorpius rotundicauda Factor C obtained from recombinant Factor C-producing Sf9 cells for 1 hour in assay buffer (30 mM Tris, pH 8.0, 30 mM NaCl, 0.3% lactose, and 0.0025% Zwittergent 3-14). The substrate N-t-Boc-Asp(Obzl)-Pro-Arg-7-Amido-4-methyl coumarin (DPR-coumarin) was added to the mixture to a final concentration of […]. The fluorescence generated from the cleavage of the substrate by activated Factor C was measured after 15-20 minutes. Results of a similar assay carried out using the substrate N-t-Boc-Val-Pro-Arg-7-Amido-4-methyl coumarin at a final concentration of 100 mM are shown in FIG. 5.
A one-step endotoxin assay can be carried out in a 96-well plate, using 100 μl each of blank and endotoxin standards. […] The plate is incubated at 37° C. for 1 hour. Excitation and emission are read at 390 and 440 nm, respectively, in a fluorescence microplate reader.

Row | Compound | Detergent concentration range for rFC inhibition [1] | enhancing concentration range (narrow or wide) [1] | enhancing/inhibiting effect on purified Limulus factor C [2] | increase of endotoxin detection sensitivity when surfactant was included (Recombinant Factor C) | optimal concentration of the surfactant [3] | Detergent concentration range for rFC enhancing [1]
1 | CCCCCCCCS[C@@H]1O[C@H](CO)[C@@H](O)[C@H](O)[C@H]1O [OTG, octyl-beta-D-thioglucoside] | >=0.5% | narrow | – | – | – | –
2 | CCCCCCCCCCCCOS(=O)(=O)[O-].[Na+] [SDS] | >=0.0004% | – | – | – | – | –
3 | CCCCCCCCCCCCCC[N+](C)(C)CCCS(=O)(=O)[O-] [Zwittergent 3-14, N-tetradecyl-N,N-dimethyl-3-ammonio-1-propanesulfonate] | >=0.004% | narrow | A similar enhancing/inhibiting effect was observed | 10 fold | 0.0025% | –
4 | Triton X-100 | >=0.008% | narrow | – | – | – | –
5 | polyoxyethylene (20) sorbitan monolaurate [Tween 20] | >0.5% | wide | – | – | – | 0.001-0.5%
6 | polyoxyethylene (20) sorbitan monooleate [Tween 80] | >0.25% | wide | – | – | – | 0.001-0.25%

— patent US6849426B2, “Methods and reagents for detecting endotoxin” (Cambrex Bio Science Walkersville, Inc., priority 2001, dated 2005)
